Measured values as given in patent US12023319B2, “Carboxylic acid aromatic amides” (priority 2016, dated 2024).

Legend:
[1] = target: T1, human Bradykinin B1 receptor (Homo sapiens, UniProt P46663); experiment: Calcium flux assay (FLIPR), CHO-K1 cells expressing human Bradykinin B1 receptor, absence of 0.1% BSA (hB1 free IC50); type: cell-based; details: absence of 0.1% BSA in assay buffer
T1 construct: host or cells: CHO-K1
T1 sequence (P46663 1-353): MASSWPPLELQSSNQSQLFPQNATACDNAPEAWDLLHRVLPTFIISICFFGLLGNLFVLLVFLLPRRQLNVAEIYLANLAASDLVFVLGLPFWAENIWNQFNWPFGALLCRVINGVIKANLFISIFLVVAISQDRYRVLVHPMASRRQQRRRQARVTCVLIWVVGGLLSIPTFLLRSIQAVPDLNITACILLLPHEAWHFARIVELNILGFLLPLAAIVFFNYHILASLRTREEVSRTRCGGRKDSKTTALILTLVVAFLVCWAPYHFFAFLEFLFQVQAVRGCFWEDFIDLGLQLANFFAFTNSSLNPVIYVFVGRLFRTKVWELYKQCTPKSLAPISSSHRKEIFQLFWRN
Outline: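 CHO-K1 hB1-D1 cells, dye-loaded, given compounds (8 concentrations, triplicate, 1% DMSO) 30 min at 28° C, then stimulated with selective B1 agonist peptide; Ca2+ fluorescence read at 538 nm on FLIPR. Peak response normalised to DMSO and 20 µM Lys-(Des-Arg-Leu)-Bradykinin full inhibition; IC50 fitted.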

[2] = target: T2, native human Bradykinin B1 receptor (Homo sapiens, UniProt P46663); experiment: Calcium flux assay (FLIPR) with IMR-90 human fibroblasts expressing Bradykinin B1 receptor after IL-1beta induction (hB1 IMR-90); type: cell-based; details: IMR-90 human fibroblasts after IL-1beta induction, read-out: hB1 IMR90 IC50
T2 construct: which express native human Bradykinin B1 receptor after induction with human IL-1beta; Coriell Institute; host or cells: IMR-90 human foetal lung fibroblasts, induced with human IL-1beta
T2 sequence (P46663 1-353): T1 sequence (P46663 1-353)
Procedure: Calcium Flux Assay (FLIPR) with Human Fibroblasts Expressing Bradykinin B1 Receptor (hB1 IMR-90)
The Calcium flux Assay was carried out utilising IMR-90 human foetal lung fibroblasts (American Type Culture Collection, Rockville, MD; and Coriell Institute, Camden, New Jersey), which express native human Bradykinin B1 receptor after induction with human IL-1beta.
The fibroblasts were cultured in complete growth media comprised of Dulbecco's modified Eagle's medium (DMEM; Sigma) containing 10% foetal bovine serum, 4 mM L-glutamine, and 1% nonessential amino acids. The cells were maintained in a humidified atmosphere with 5% CO2 at 37° C. and were sub-cultured at a ratio of 1:3, every other day.
For the assay, IMR-90 fibroblasts were harvested using TrypLE Express (GIBCO/Invitrogen) and seeded into 384-well plates (Corning Cellbinding Surface, Cat. 3683) at a density of 15000 cells/well. The following day, cells were treated with 0.35 ng/mL human IL-1beta in 10% FBS/MEM for 3 h to up-regulate Bradykinin B1 receptor. Induced cells were loaded with fluorescent calcium indicator by incubation with 2.5 μM Fluo-4/AM (Invitrogen) at 37° C., 5% CO2 for 2 h in the presence of 2.5 mM probenecid in 1% FBS/MEM. […] Compound examples were assayed at 8 concentrations in triplicate. […] A peptide antagonist Lys-(Des-Arg-Leu)-Bradykinin (Bachem, Brackley) at 20 µM was used to determine the full inhibition as control. IC50 values were determined by the same way described for the FLI PR assay with recombinant cells.

Row | IC50 [1] [nM] | IC50 [2] [nM] | Compound
1 | 33 | 73 | CCC(F)(F)c1ccc(-c2ccc(NC(=O)C3(c4ccc(OC(F)(F)F)cc4F)CC3)cc2C(=O)O)cn1 [Example 27, 2-[6-(1,1-Difluoropropyl)pyridin-3-yl]-5-[({1-[2-fluoro-4-(trifluoromethoxy)phenyl]cyclopropyl}carbonyl)amino]benzoic acid]
2 | 17 | 74 | CCC(F)(F)c1ccc(-c2c(Cl)cc(NC(=O)C3(c4ccc(C(F)(F)F)cc4F)CC3)cc2C(=O)O)cn1 [Example 105, 3-Chloro-2-[6-(1,1-difluoropropyl)pyridin-3-yl]-5-[({1-[2-fluoro-4-(trifluoromethyl)phenyl]cyclopropyl}carbonyl)amino]benzoic acid]
3 | 20 | 7.6 | CC(C)(C)c1cn(-c2c(F)cc(NC(=O)C3(c4ccc(OC(F)(F)F)cc4F)CC3)cc2C(=O)O)cn1 [Example 91, 2-(4-tert-Butyl-1H-imidazol-1-yl)-3-fluoro-5-[({1-[2-fluoro-4-(trifluoromethoxy)phenyl]cyclopropyl}carbonyl)amino]benzoic acid]
4 | 8.8 | 3.7 | O=C(O)c1cc(NC(=O)C2(c3ccc(Cl)cc3F)CC2)cc(F)c1-c1cnn(C2CCC2)c1 [Example 41, 5-({[1-(4-Chloro-2-fluorophenyl)cyclopropyl]carbonyl}amino)-2-(1-cyclobutyl-1H-pyrazol-4-yl)-3-fluorobenzoic acid]
5 | 230 | 100 | CC(C)(C)c1cnn(-c2ccc(NC(=O)C3(c4ccc(C(F)(F)F)cc4F)CC3)cc2C(=O)O)c1 [Example 17, 2-(4-tert-Butyl-1H-pyrazol-1-yl)-5-[({1-[2-fluoro-4-(trifluoromethyl)phenyl]cyclopropyl}carbonyl)amino]benzoic acid]
6 | 22 | 36 | Cc1cc(NC(=O)C2(c3ccc(C(F)(F)F)cc3F)CC2)cc(C(=O)O)c1-c1cnn(C2CCC2)c1 [Example 107, 2-(1-Cyclobutyl-1H-pyrazol-4-yl)-5-[({1-[2-fluoro-4-(trifluoromethyl)phenyl]cyclopropyl}carbonyl)amino]-3-methylbenzoic acid]
7 | 8.9 | 13 | O=C(O)c1cc(NC(=O)C2(c3ccc(C(F)(F)F)cc3F)CC2)cc(Cl)c1-c1cnn(C2CCC2)c1 [Example 100, 3-Chloro-2-(1-cyclobutyl-1H-pyrazol-4-yl)-5-[({1-[2-fluoro-4-(trifluoromethyl)phenyl]cyclopropyl}carbonyl)amino]benzoic acid]
8 | 140 | 320 | CCOc1ccc(-c2ccc(NC(=O)C3(c4cccc(Cl)c4)CC3)cc2C(=O)O)cn1 [Example 9, 5-({[1-(3-Chlorophenyl)cyclopropyl]carbonyl}amino)-2-(6-ethoxypyridin-3-yl)benzoic acid]
9 | 26 | 22 | O=C(O)c1cc(NC(=O)C2(c3cc(Cl)ccc3F)CC2)ccc1-c1cnn(C2CCC2)c1 [Example 54, 5-({[1-(5-Chloro-2-fluorophenyl)cyclopropyl]carbonyl}amino)-2-(1-cyclobutyl-1H-pyrazol-4-yl)benzoic acid]
10 | 2500 | 1700 | CCC(F)(F)c1ccc(-c2ccc(NC(=O)C3(c4ccc(F)c(F)c4)CC3)cc2C(=O)O)cn1 [Example 20, 5-({[1-(3,4-Difluorophenyl)cyclopropyl]carbonyl}amino)-2-[6-(1,1-difluoropropyl)pyridin-3-yl]benzoic acid]
11 | 10 | 25 | CCC(F)(F)c1ccc(-c2c(F)cc(NC(=O)C3(c4ccc(OC(F)(F)F)cc4F)CC3)cc2C(=O)O)cn1 [Example 97, 2-[6-(1,1-Difluoropropyl)pyridin-3-yl]-3-fluoro-5-[({1-[2-fluoro-4-(trifluoromethoxy)phenyl]cyclopropyl}carbonyl)amino]benzoic acid]
12 | 32 | 14 | CC(C)n1cc(-c2c(F)cc(NC(=O)C3(c4ccc(OC(F)(F)F)cc4F)CC3)cc2C(=O)O)cn1 [Example 89, 3-Fluoro-5-[({1-[2-fluoro-4-(trifluoromethoxy)phenyl]cyclopropyl}carbonyl)amino]-2-[1-(propan-2-yl)-1H-pyrazol-4-yl]benzoic acid]
13 | 200 | 1100 | O=C(O)c1cc(NC(=O)C2(c3ccc(OC(F)(F)F)cc3F)CC2)ccc1-c1ccc(C(F)(F)F)nc1 [Example 7, 5-[({1-[2-Fluoro-4-(trifluoromethoxy)phenyl]cyclopropyl}carbonyl)amino]-2-[6-(trifluoromethyl)pyridin-3-yl]benzoic acid]
14 | 17 | 15 | CC(C)Cn1cc(-c2ccc(NC(=O)C3(c4ccc(C(F)(F)F)cc4F)CC3)cc2C(=O)O)cn1 [Example 74, 5-[({1-[2-Fluoro-4-(trifluoromethyl)phenyl]cyclopropyl}carbonyl)amino]-2-[1-(2-methylpropyl)-1H-pyrazol-4-yl]benzoic acid]
15 | 61 | 41 | CC(C)(C)c1cn(-c2ccc(NC(=O)C3(c4ccc(C(F)(F)F)cc4F)CC3)cc2C(=O)O)cn1 [Example 67, 2-(4-tert-Butyl-1H-imidazol-1-yl)-5-[({1-[2-fluoro-4-(trifluoromethyl)phenyl]cyclopropyl}carbonyl)amino]benzoic acid]
16 | 16 | 11 | O=C(O)c1cc(NC(=O)C2(c3ccc(F)cc3F)CC2)cc(F)c1-c1cnn(C2CCC2)c1 [Example 40, 2-(1-Cyclobutyl-1H-pyrazol-4-yl)-5-({[1-(2,4-difluorophenyl)cyclopropyl]carbonyl}amino)-3-fluorobenzoic acid]
17 | 300 | 460 | O=C(O)c1cc(NC(=O)C2(c3cccc(Cl)c3)CC2)ccc1-c1cnn(C2CCC2)c1 [Example 28, 5-({[1-(3-Chlorophenyl)cyclopropyl]carbonyl}amino)-2-(1-cyclobutyl-1H-pyrazol-4-yl)benzoic acid]
18 | 21 | 44 | CC(C)(C)n1cc(-c2ccc(NC(=O)C3(c4ccc(OC(F)(F)F)cc4F)CC3)cc2C(=O)O)cn1 [Example 73, 2-(1-tert-Butyl-1H-pyrazol-4-yl)-5-[({1-[2-fluoro-4-(trifluoromethoxy)phenyl]cyclopropyl}carbonyl)amino]benzoic acid]
19 | 17 | 19 | O=C(O)c1cc(NC(=O)C2(c3ccc(OC(F)(F)F)cc3F)CC2)ccc1-c1cnn(C2CCC2)c1 [Example 51, 2-(1-Cyclobutyl-1H-pyrazol-4-yl)-5-[({1-[2-fluoro-4-(trifluoromethoxy)phenyl]cyclopropyl}carbonyl)amino]benzoic acid]
20 | 13 | 21 | O=C(O)c1cc(NC(=O)C2(c3ccc(OC(F)(F)F)cc3F)CC2)cc(F)c1-c1ccc(C(F)F)nc1 [Example 95, 2-[6-(Difluoromethyl)pyridin-3-yl]-3-fluoro-5-[({1-[2-fluoro-4-(trifluoromethoxy)phenyl]cyclopropyl}carbonyl)amino]benzoic acid]
21 | 34 | 49 | CC(C)n1cc(-c2ccc(NC(=O)C3(c4ccc(C(F)(F)F)cc4F)CC3)cc2C(=O)O)cn1 [Example 70, 5-[({1-[2-Fluoro-4-(trifluoromethyl)phenyl]cyclopropyl}carbonyl)amino]-2-[1-(propan-2-yl)-1H-pyrazol-4-yl]benzoic acid]
22 | 67 | 130 | Cc1ccc(-c2ccc(NC(=O)C3(c4ccc(C(F)(F)F)cc4F)CC3)cc2C(=O)O)cn1 [Example 19, 5-[({1-[2-Fluoro-4-(trifluoromethyl)phenyl]cyclopropyl}carbonyl)amino]-2-(6-methylpyridin-3-yl)benzoic acid]

Row | Compound | IC50 [1] [nM] | IC50 [2] [nM]
23 | CCC(F)(F)c1ccc(-c2c(F)cc(NC(=O)C3(c4ccc(C(F)(F)F)cc4F)CC3)cc2C(=O)O)cn1 [Example 96, 2-[6-(1,1-Difluoropropyl)pyridin-3-yl]-3-fluoro-5-[({1-[2-fluoro-4-(trifluoromethyl)phenyl]cyclopropyl}carbonyl)amino]benzoic acid] | 8.1 | 25
